These results are taken from US7902184B2, “Piperazinyl pyrimidine derivatives” (Hoffmann-La Roche Inc., priority 2006, dated 2011).

T1 sequence (Q9Y5N1 whole entry): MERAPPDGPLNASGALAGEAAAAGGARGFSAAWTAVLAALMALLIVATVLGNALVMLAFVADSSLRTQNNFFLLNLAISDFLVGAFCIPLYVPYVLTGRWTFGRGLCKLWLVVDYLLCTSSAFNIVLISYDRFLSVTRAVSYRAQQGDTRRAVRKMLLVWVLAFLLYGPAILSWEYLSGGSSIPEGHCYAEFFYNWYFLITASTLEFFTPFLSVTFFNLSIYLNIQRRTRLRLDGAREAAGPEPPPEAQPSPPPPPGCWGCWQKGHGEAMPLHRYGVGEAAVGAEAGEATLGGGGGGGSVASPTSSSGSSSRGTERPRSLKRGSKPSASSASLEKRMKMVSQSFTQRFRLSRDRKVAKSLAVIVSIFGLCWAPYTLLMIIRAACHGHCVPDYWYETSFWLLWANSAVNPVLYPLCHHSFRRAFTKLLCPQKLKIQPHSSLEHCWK

This assay has as its target T1, histamine 3 receptor (H3R) (Homo sapiens, UniProt Q9Y5N1).
T1 construct: expressed in transfected cells; host or cells: CHO cells (membranes)
As to the kind of experiment: Binding assay with 3H-(R)α-methylhistamine (competition binding, H3R-CHO membranes). The following applies: membrane of the human H3R-CHO cell line; 3H(R)α-methylhistamine 1 nM; Ki calculated from IC50 by Cheng-Prusoff. On the procedure: Binding Assay with ^3H—(R)α-methylhistamine
Saturation binding experiments were performed using HR3-CHO membranes prepared as described in Takahashi, K, Tokita, S., Kotani, H. (2003) J. Pharmacol. Exp. Therapeutics 307, 213-218.
An appropriate amount of membrane (60 to 80 μg protein/well) was incubated with increasing concentrations of ^3H(R)α-methylhistamine di-hydrochloride (0.10 to 10 nM). Non specific binding was determined using a 200 fold excess of cold (R)α-methylhistamine dihydrobromide (500 nM final concentration). The incubation was carried out at room temperature (in deep-well plates shaking for three hours). The final volume in each well was 250 μl. The incubation was followed by rapid filtration on GF/B filters (pre-soaked with 100 μl of 0.5% PEI in Tris 50 mM shaking at 200 rpm for two hours). The filtration was made using a cell-harvester and the filter plates were then washed five times with ice cold washing buffer containing 0.5 M NaCl. After harvesting, the plates were dried at 55° C. for 60 min, then scintillation fluid (Microscint 40, 40 microl in each well) was added and the amount of radioactivity on the filter was determined in Packard top-counter after shaking the plates for two hours at 200 rpm at room temperature.
Binding Buffer: 50 mM Tris-HCl pH 7.4 and 5 mM MgCl2×6H2O pH 7.4. Washing Buffer: 50 mM Tris-HCl pH 7.4 and 5 mM MgCl2×6H2O and 0.5 M NaCl pH 7.4.
Indirect measurement of affinity of H3R inverse agonists: twelve increasing concentrations (ranging from 10 μM to 0.3 nM) of the selected compounds were always tested in competition binding experiments using membrane of the human H3R-CHO cell line. […]
All compounds were tested at a single concentration in duplicate. […] Ki's were calculated from IC50 based on Cheng-Prusoff equation (Cheng, Y, Prusoff, W H (1973) Biochem Pharmacol 22, 3099-3108): Ki=IC50/[1+D/Kd] wherein D is the concentration of the radioligand and Kd is the binding constant for the radioligand binding to the receptor and the conditions used in the competition experiment.
The term Ki denotes the dissociation constant of the complex between target and ligand, obtained from inhibition or displacement. Turning to `O=C(Nc1ccnc(N2CCN(C3CCCC3)CC2)n1)N1CCCCCC1` [Example 6, azepane-1-carboxylic acid [2-(4-cyclopentyl-piperazin-1-yl)-pyrimidin-4-yl]-amide], the inhibition constant (Ki) was 0.051 µM.

For `CC(C)N1CCN(c2cc(NC(=O)N3CCCCC3)ncn2)CC1` [Example 54, piperidine-1-carboxylic acid [6-(4-isopropyl-piperazin-1-yl)-pyrimidin-4-yl]-amide], the Ki is 0.0346 µM. Next, `CC1CC(C)CN(C(=O)Nc2cc(N3CCN(C4CCCCC4)CC3)ncn2)C1` (stereo not drawn) [Example 93, 3,5-Dimethyl-piperidine-1-carboxylic acid [6-(4-cyclohexyl-piperazin-1-yl)-pyrimidin-4-yl]-amide]: 0.0222 µM.
